In this assay the target is Branched-chain-amino-acid aminotransferase, mitochondrial (Homo sapiens, UniProt O15382).

Each structure is given as a SMILES string.

Broadly, the IC50 is the midpoint of a concentration-inhibition curve. A low value points to inhibition by little substance.

Chain of Branched-chain-amino-acid aminotransferase, mitochondrial (O15382 whole entry): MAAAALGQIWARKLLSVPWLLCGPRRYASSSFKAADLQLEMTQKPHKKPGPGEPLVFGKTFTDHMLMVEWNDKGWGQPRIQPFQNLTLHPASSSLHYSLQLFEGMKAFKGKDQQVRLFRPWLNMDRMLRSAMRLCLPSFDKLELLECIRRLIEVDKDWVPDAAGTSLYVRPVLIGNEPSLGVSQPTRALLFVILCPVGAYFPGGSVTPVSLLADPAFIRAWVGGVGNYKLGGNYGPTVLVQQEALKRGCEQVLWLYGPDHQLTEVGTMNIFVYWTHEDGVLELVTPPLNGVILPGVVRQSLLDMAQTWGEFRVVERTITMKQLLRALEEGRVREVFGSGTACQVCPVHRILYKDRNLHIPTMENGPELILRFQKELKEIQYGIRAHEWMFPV

With `Cc1ccccc1Oc1cc(-n2c(=O)cc(C(F)(F)F)[nH]c2=O)c2ccccc2c1` [BAY-771], the half-maximal inhibitory concentration (IC50) is on record as 10.8 µM (not active).

The values are drawn from ChEMBL document CHEMBL4507325 (2021).
